# Data reported in PMC9505067, “Synthesis of Hydantoin Androgen Receptor Antagonists and Study on Their Antagonistic Activity” (Molecules, 2022).
# Like-named read-outs stand apart in the source and are kept apart here.
# How the values were obtained:
# [1] = tested on: LNCaP cells; assay: Anti-proliferative activity assay in LNCaP cells (CCK-8); type: cell-based; conditions: 72 h treatment, normalized relative to DMSO-control treated cells, means ± SD, concentration not given
# Method: We performed experiments accordingly to detect the anti-proliferative effect of compounds using the prostate cancer LNCaP cell line. The measurement of proliferative activity was performed after treatment with a concentration range of each compound for 72 h.
# LNCaP cells were cultured in RPMI-1640 medium (Life Technologies, Carlsbad, CA, USA) supplemented with 10% (v/v) fetal bovine serum, 1% sodium pyruvate and 1% L-Glutamine. The cells were seeded into 96-well plates at a density of 8 × 10^4 cells per well. After 24 h incubation, the culture medium was removed and the cells were cultivated in the medium supplemented with 2% (v/v) fetal bovine serum for 2 days and then treated with different concentrations of test compounds for 3 days. Cell viability was measured with the CCK-8 kit (Dojindo).
# [2] = target: T1, androgen receptor (AR) (Homo sapiens, UniProt P10275); assay: AR antagonist luciferase gene reporter assay (AR plasmid pSVAR0 + MMTV-Luc, DHT at EC80)
# T1 sequence (P10275 1-920): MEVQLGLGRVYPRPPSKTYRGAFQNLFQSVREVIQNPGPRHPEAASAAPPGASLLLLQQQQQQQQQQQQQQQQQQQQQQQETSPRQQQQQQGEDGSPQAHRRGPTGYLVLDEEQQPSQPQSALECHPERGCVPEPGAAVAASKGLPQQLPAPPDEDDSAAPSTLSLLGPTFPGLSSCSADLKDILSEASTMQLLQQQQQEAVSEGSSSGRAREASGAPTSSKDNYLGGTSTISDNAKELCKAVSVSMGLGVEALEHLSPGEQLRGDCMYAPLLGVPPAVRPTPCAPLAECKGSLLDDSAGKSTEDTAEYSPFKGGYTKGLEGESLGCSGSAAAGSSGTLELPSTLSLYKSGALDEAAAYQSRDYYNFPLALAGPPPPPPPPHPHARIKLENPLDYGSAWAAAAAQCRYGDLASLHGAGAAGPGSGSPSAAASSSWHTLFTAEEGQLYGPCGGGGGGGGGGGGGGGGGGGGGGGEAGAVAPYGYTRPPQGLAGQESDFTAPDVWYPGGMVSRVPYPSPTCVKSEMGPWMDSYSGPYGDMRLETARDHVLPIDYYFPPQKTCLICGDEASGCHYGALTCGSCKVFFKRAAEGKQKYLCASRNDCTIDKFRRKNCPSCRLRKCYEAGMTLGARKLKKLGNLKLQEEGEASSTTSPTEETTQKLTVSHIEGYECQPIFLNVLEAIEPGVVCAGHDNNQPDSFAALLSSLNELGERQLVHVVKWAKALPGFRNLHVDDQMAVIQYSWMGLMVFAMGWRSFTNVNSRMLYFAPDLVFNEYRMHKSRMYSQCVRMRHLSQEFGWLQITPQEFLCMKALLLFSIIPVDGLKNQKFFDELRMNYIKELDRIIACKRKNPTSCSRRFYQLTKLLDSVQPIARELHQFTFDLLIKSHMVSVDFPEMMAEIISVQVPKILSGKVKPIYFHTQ
# [3] = Antagonist Activity in CV-1 IC50, luciferase reporter in AR-transfected cells, DHT at EC80, 24 h incubation, means ± SD of three independent experiments
# [4] = luciferase reporter in AR-transfected cells, DHT at EC80, 24 h, enzalutamide = 100, means ± SD of three independent experiments
Compound,Proliferative/Anti-Proliferative Activity in LNCAP [1] [%],melting point [°C],Antagonist Activity in CV-1 Efficacy [2] [%],"IC50 [2, 3] [nM]",IC50 [2] [nM],"Antagonist Activity in CV-1 Efficacy [2, 4] [%]"
"CC1(CO)C(=O)N(c2ccc(C#N)c(C(F)(F)F)c2)C(=S)N1c1ccccc1 (stereo not drawn) [6a, 4-(4-(hydroxymethyl)-4-methyl-5-oxo-3-phenyl-2-thioxoimidazolidin-1-yl)-2-(trifluoromethyl)benzonitrile]",149.3 ± 14.2,216 to 219,101 ± 6.7,46.8 ± 6.2,,
"CC1(CO)C(=O)N(c2ccc(C#N)c(C(F)(F)F)c2)C(=S)N1c1ccc(F)cc1 (stereo not drawn) [6c, 4-(3-(4-fluorophenyl)-4-(hydroxymethyl)-4-methyl-5-oxo-2-thioxoimidazolidin-1-yl)-2-(trifluoromethyl)benzonitrile]",118.7 ± 22.1,231 to 233,91 ± 5.9,46.2 ± 4.1,,
"CC1(CO)C(=O)N(c2ccc(C#N)c(C(F)(F)F)c2)C(=O)N1c1ccccc1 (stereo not drawn) [7a, 4-(4-(hydroxymethyl)-4-methyl-2,5-dioxo-3-phenylimidazolidin-1-yl)-2-(trifluoromethyl)benzonitrile]",,187 to 189,101 ± 15.1,94.8 ± 12.8,,
"Cc1ccc(N2C(=O)N(c3ccc(C#N)c(C(F)(F)F)c3)C(=O)C2(C)CO)cc1 (stereo not drawn) [7b, 4-(4-(hydroxymethyl)-4-methyl-2,5-dioxo-3-(p-tolyl)imidazolidin-1-yl)-2-(trifluoromethyl)benzonitrile]",,156 to 158,95 ± 12.3,115 ± 17.6,,
"CC1(CO)C(=O)N(c2ccc(C#N)c(C(F)(F)F)c2)C(=O)N1c1ccc(F)cc1 (stereo not drawn) [7c, 4-(3-(4-fluorophenyl)-4-(hydroxymethyl)-4-methyl-2,5-dioxoimidazolidin-1-yl)-2-(trifluoromethyl)benzonitrile]",,208 to 210,94 ± 14.6,67.3 ± 15.5,,
"CC1(CO)C(=O)N(c2ccc(C#N)c(C(F)(F)F)c2)C(=O)N1c1ccc(Cl)cc1 (stereo not drawn) [7d, 4-(3-(4-chlorophenyl)-4-(hydroxymethyl)-4-methyl-2,5-dioxoimidazolidin-1-yl)-2-(trifluoromethyl)benzonitrile]",,152 to 154,94 ± 9.7,68.6 ± 22.4,,
"CC1(CO)C(=O)N(c2ccc(C#N)c(C(F)(F)F)c2)C(=O)N1c1ccc(Br)cc1 (stereo not drawn) [7e, 4-(3-(4-bromophenyl)-4-(hydroxymethyl)-4-methyl-2,5-dioxoimidazolidin-1-yl)-2-(trifluoromethyl)benzonitrile]",,102 to 104,95 ± 11.2,84.2 ± 37.1,,
"COc1ccc(N2C(=O)N(c3ccc(C#N)c(C(F)(F)F)c3)C(=O)C2(C)CO)cc1 (stereo not drawn) [7f, 4-(4-(hydroxymethyl)-3-(4-methoxyphenyl)-4-methyl-2,5-dioxoimidazolidin-1-yl)-2-(trifluoromethyl)benzonitrile]",,128 to 130,90 ± 13.3,416 ± 230,,
"CC1(CO)C(=O)N(c2ccc(C#N)c(C(F)(F)F)c2)C(=O)N1c1ccc([N+](=O)[O-])cc1 (stereo not drawn) [7h, 4-(4-(hydroxymethyl)-4-methyl-3-(4-nitrophenyl)-2,5-dioxoimidazolidin-1-yl)-2-(trifluoromethyl)benzonitrile]",,160 to 162,93 ± 9.3,48.9 ± 12.7,,
"CC1(CO)C(=O)N(c2ccc(C#N)c(C(F)(F)F)c2)C(=O)N1c1ccc(C(F)(F)F)cc1 (stereo not drawn) [7i, 4-(4-(hydroxymethyl)-4-methyl-2,5-dioxo-3-(4-(trifluoromethyl)phenyl)imidazolidin-1-yl)-2-(trifluoromethyl)benzonitrile]",,161 to 163,99 ± 12.5,149 ± 30.4,,
"COC(=O)c1ccc(N2C(=O)N(c3ccc(C#N)c(C(F)(F)F)c3)C(=O)C2(C)CO)cc1 (stereo not drawn) [7j, methyl 4-(3-(4-cyano-3-(trifluoromethyl)phenyl)-5-(hydroxymethyl)-5-methyl-2,4-dioxoimidazolidin-1-yl)benzoate]",,139 to 141,96 ± 10.8,139 ± 36.2,,
"CC1(CO)C(=O)N(c2ccc(C#N)c(C(F)(F)F)c2)C(=S)N1c1ccc(O)cc1 (stereo not drawn) [11a, 4-(4-(hydroxymethyl)-3-(4-hydroxyphenyl)-4-methyl-5-oxo-2-thioxoimidazolidin-1-yl)-2-(trifluoromethyl)benzonitrile]",,203 to 205,90 ± 7.5,3640 ± 932,,
"CC1(CO)C(=O)N(c2ccc(C#N)c(C(F)(F)F)c2)C(=O)N1c1ccc(O)cc1 (stereo not drawn) [11b, 4-(4-(hydroxymethyl)-3-(4-hydroxyphenyl)-4-methyl-2,5-dioxoimidazolidin-1-yl)-2-(trifluoromethyl)benzonitrile]",,110 to 112,100 ± 3.4,2360 ± 1710,,
"CC1(CO)C(=O)N(c2cnc(C#N)c(C(F)(F)F)c2)C(=S)N1c1ccccc1 (stereo not drawn) [19a, 5-(4-(hydroxymethyl)-4-methyl-5-oxo-3-phenyl-2-thioxoimidazolidin-1-yl)-3-(trifluoromethyl)picolinonitrile]",122.8 ± 16.8,203 to 205,61.27 ± 12.44,18.4 ± 8.65,,
"CC1(CO)C(=O)N(c2cnc(C#N)c(C(F)(F)F)c2)C(=S)N1c1ccc(F)cc1 (stereo not drawn) [19b, 5-(3-(4-fluorophenyl)-4-(hydroxymethyl)-4-methyl-5-oxo-2-thioxoimidazolidin-1-yl)-3-(trifluoromethyl)picolinonitrile]",65.7 ± 20.5,181 to 183,,,32.5 ± 22.1,75.55 ± 11.87
"CNC(=O)c1ccc(N2C(=S)N(c3cnc(C#N)c(C(F)(F)F)c3)C(=O)C2(C)CO)cc1F (stereo not drawn) [19c, 4-(3-(6-cyano-5-(trifluoromethyl)pyridin-3-yl)-5-(hydroxymethyl)-5-methyl-4-oxo-2-thioxoimidazolidin-1-yl)-2-fluoro-N-methylbenzamide]",,127 to 129,,,903 ± 602,55.46 ± 14.74
"CN1CCC(Oc2ccc(N3C(=S)N(c4cnc(C#N)c(C(F)(F)F)c4)C(=O)C3(C)CO)cc2)CC1 (stereo not drawn) [19d, 5-(4-(hydroxymethyl)-4-methyl-3-(4-((1-methylpiperidin-4-yl)oxy)phenyl)-5-oxo-2-thioxoimidazolidin-1-yl)-3-(trifluoromethyl)picolinonitrile]",,119 to 121,,,139 ± 28.1,81.64 ± 5.92
"C[C@]12CCC(=O)C[C@@H]1CC[C@@H]1[C@@H]2CC[C@]2(C)[C@@H](O)CC[C@@H]12 [DHT, reference compound]",186.7 ± 5.6,,,,,
"CNC(=O)c1ccc(N2C(=S)N(c3ccc(C#N)c(C(F)(F)F)c3)C(=O)C2(C)C)cc1F [Enzalutamide, reference compound]",71.4 ± 7.8,,,,,
"CC(=O)Nc1ccc(N2C(=S)N(c3ccc(C#N)c(C(F)(F)F)c3)C(=O)C2(C)CO)cc1 (stereo not drawn) [compound 9, N-(4-(3-(4-cyano-3-(trifluoromethyl)phenyl)-5-(hydroxymethyl)-5-methyl-4-oxo-2-thioxoimidazolidin-1-yl)phenyl)acetamide]",,126 to 128,95 ± 3.1,939 ± 124,,
"CC(=O)Nc1ccc(N2C(=O)N(c3ccc(C#N)c(C(F)(F)F)c3)C(=O)C2(C)CO)cc1 (stereo not drawn) [compound 10, N-(4-(3-(4-cyano-3-(trifluoromethyl)phenyl)-5-(hydroxymethyl)-5-methyl-2,4-dioxoimidazolidin-1-yl)phenyl)acetamide]",,124 to 126,84 ± 8.6,> 5000,,
